Test results reported in patent publication US20190119200A1, “TERTIARY AMIDES AND METHOD OF USE” (AbbVie Inc., priority 2016, published 2019).

Experiments:
Assay type in all cases: cell-based
[1] = test system: LPA-induced MCP-1 in NRK-49F cells; test: LPA-induced MCP-1 AlphaLISA assay; conditions: Rattus norvegicus, final LPA 10 μM, 7 hours; for Emax: read-out: Maximum Inhibition
Summary of the method: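 NRK-49F rat fibroblasts, serum-starved overnight, pretreated with compound for 30 min at 37 °C (1% DMSO final), then stimulated with 10 μM LPA final. MCP-1 in the supernatant was measured by mouse/rat CCL2 AlphaLISA. IC50 values came from four-parameter logistic fits of the ratio data.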

LPAR1 [2] = target: T1, LPAR1 (Homo sapiens, UniProt Q92633); test: LPAR1 Arrestin Assay (arrestin reporter assay); conditions: U2OS cells stably expressing the LPAR1 receptor, 200 nM 18:1 LPA (EC80); for Emax: read-out: Maximum Inhibition
T1 construct: host or cells: U2OS
Method: One day prior to the experiment, frozen U2OS cells stably expressing the LPAR1 receptor (Life Technologies, Grand Island, N.Y., #K1519A) were thawed, centrifuged at 1,000 rpm for 5 minutes to remove DMSO, and resuspended in FreeStyle™ media (Gibco, Grand Island, N.Y.). Forty microliters of cells were plated into PDL-coated 384-well plates (Greiner Bio-One, Monroe, N.C.) at 10,000 cells/well, and then the plates were incubated overnight in humidified 5% CO2 at 37° C. Test compounds were dissolved in DMSO, and 12-point, 1:3 dilution CRCs were prepared in duplicate; daughter plates were prepared by aliquoting 0.8 μL/well of test compound dilutions into 384-well plates. On the day of the assay, the daughter plates were diluted to 6× stocks using HEPES-buffered HBSS, then 10 μL of 6× test compounds were added to the cells, and the plates were incubated at 37° C. for one hour. After this 1 hour incubation, 10 μL of a 6× stock of the LPAR1 agonist, 18:1 LPA (Avanti Polar Lipids, Alabaster, Ala.), was prepared in HEPES-buffered HBSS+0.1% fatty acid-free BSA (Sigma, St. Louis, Mo.). The 6×LPA was added to all wells for a final concentration of 200 nM, which corresponds to the 18:1 LPA EC80 in this arrestin assay. The final DMSO concentration in the assay plate was 0.1%, and the final BSA concentration was 0.02%. After addition of LPA to all wells, the assay plates were incubated in humidified 5% CO2 at 37° C. for five hours. During the incubation period, 6× dye from the LiveBLAzer™-FRET B/G with CCF4-AM kit (Life Technologies, Grand Island, N.Y.) was prepared according to manufacturers' instructions. At the end of the 5 hour compound incubation, 10 μL of 6× dye was added to each well, and the assay plate was incubated for two hours in the dark at room temperature. Throughout the assay procedure, all volume additions were performed with a Biomek® NX liquid handler (Beckman Coulter, Indianapolis, Ind.). After the 2 hour dye-load, fluorescence was measured on an EnVision® Multilabel Plate Reader (Perkin Elmer, Waltham, Mass.) with an excitation filter at 409/20 nm and emission filters at 460/40 nm and 530/30 nm. Data processing was performed as recommended by the LiveBLAzer™-FRET B/G with CCF4-AM kit manual; all test compound CRCs were performed in duplicate with n≥3.

LPAR1 [3] = target: T1, LPAR1; test: LPAR1 FLIPR Assay; conditions: U2OS cells stably expressing LPAR1, LPA (EC80), Calcium 6 FLIPR dye; for Emax: read-out: Maximum Inhibition
Summary of the method: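 U2OS cells stably expressing LPAR1 were loaded with Calcium 6 dye for 2 h at 37° C, preincubated 3 min with compound (11-point 3-fold series), then stimulated with LPA at EC80. Fluorescence at 515-575 nm was recorded by FLIPR; IC50 came from four-parameter logistic fits of ratio data.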

T1 sequence (Q92633 whole entry): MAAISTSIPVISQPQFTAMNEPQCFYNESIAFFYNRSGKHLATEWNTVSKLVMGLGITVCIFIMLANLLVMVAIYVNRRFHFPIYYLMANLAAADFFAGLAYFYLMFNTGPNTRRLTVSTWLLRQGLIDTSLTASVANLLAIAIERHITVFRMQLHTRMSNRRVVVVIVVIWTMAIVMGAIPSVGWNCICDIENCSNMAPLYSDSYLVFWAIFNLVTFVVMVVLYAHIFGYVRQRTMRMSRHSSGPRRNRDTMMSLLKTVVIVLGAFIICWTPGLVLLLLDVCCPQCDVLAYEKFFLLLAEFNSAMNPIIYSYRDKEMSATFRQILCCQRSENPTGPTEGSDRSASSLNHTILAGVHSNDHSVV

COc1cc(C(=O)N(CCCc2ccccc2)CCC[C@H](C)C(=O)O)cc(OC)c1C (single isomer, unassigned) [Example 78]
IC50 [1]: 78 nM | Emax [1]: 95% | IC50 (LPAR1 [2]): 11 nM | Emax (LPAR1 [2]): 103% | IC50 (LPAR1 [3]): 33 nM | Emax (LPAR1 [3]): 100%

COc1cc(C(=O)N(CCCCC(=O)O)CCCc2ccccc2)c(F)c(OC)c1F [Example 30, 5-[(2,4-difluoro-3,5-dimethoxybenzoyl)(3-phenylpropyl)amino]pentanoic Acid]
IC50 [1]: 743 nM | Emax [1]: 74% | IC50 (LPAR1 [2]): 618 nM | Emax (LPAR1 [2]): 118% | IC50 (LPAR1 [3]): 42 nM | Emax (LPAR1 [3]): 96%

COc1cc(OC)c(Cl)c(C(=O)N(CCCCC(=O)O)CCCc2ccccc2)c1 [Example 39, 5-[(2-chloro-3,5-dimethoxybenzoyl)(3-phenylpropyl)amino]pentanoic Acid]
IC50 [1]: 318 nM | Emax [1]: 80% | IC50 (LPAR1 [2]): 1210 nM | Emax (LPAR1 [2]): 99% | IC50 (LPAR1 [3]): 54 nM | Emax (LPAR1 [3]): 96%

COc1cc(C(=O)N(CCCc2ccccc2)CC(=O)NC(C)(C)C(=O)O)cc(OC)c1C [Example 45, N-(3,5-dimethoxy-4-methylbenzoyl)-N-(3-phenylpropyl)glycyl-2-methylalanine]
IC50 [1]: 5540 nM | Emax [1]: 71% | IC50 (LPAR1 [2]): 494 nM | Emax (LPAR1 [2]): 108% | IC50 (LPAR1 [3]): 51 nM | Emax (LPAR1 [3]): 91%

COc1cc(C(=O)N(CCCCC(=O)O)CCCc2ccccc2)cc(OC)n1 [Example 48, 5-[(2,6-dimethoxypyridine-4-carbonyl)(3-phenylpropyl)amino]pentanoic Acid]
IC50 [1]: > 4770 nM | Emax [1]: 62% | IC50 (LPAR1 [2]): 3320 nM | Emax (LPAR1 [2]): 113% | IC50 (LPAR1 [3]): 52 nM | Emax (LPAR1 [3]): 81%

COc1cc(OC)c(F)c(C(=O)N(CCCCC(=O)O)CCCc2ccccc2)c1 [Example 58, 5-[(2-fluoro-3,5-dimethoxybenzoyl)(3-phenylpropyl)amino]pentanoic Acid]
IC50 [1]: 2390 nM | Emax [1]: 78% | IC50 (LPAR1 [2]): 636 nM | Emax (LPAR1 [2]): 112% | IC50 (LPAR1 [3]): 32 nM | Emax (LPAR1 [3]): 93%

COc1ccc(C2(C(=O)N(CCCCC(=O)O)CCCc3ccccc3)CC2)nc1 [Example 63, 5-{[1-(5-methoxypyridin-2-yl)cyclopropane-1-carbonyl](3-phenylpropyl)amino}pentanoic Acid]
IC50 [1]: 5530 nM | Emax [1]: 51% | IC50 (LPAR1 [2]): 3070 nM | Emax (LPAR1 [2]): 118% | IC50 (LPAR1 [3]): 80 nM | Emax (LPAR1 [3]): 87%

COc1ccc(C2(C(=O)N(CCCCC(=O)O)CCCc3ccccc3)COC2)cc1 [Example 89, 5-{[3-(4-methoxyphenyl)oxetane-3-carbonyl](3-phenylpropyl)amino}pentanoic Acid]
IC50 [1]: 4700 nM | Emax [1]: 65% | IC50 (LPAR1 [2]): 445 nM | Emax (LPAR1 [2]): 114% | IC50 (LPAR1 [3]): 36 nM | Emax (LPAR1 [3]): 95%

COc1cc(OC)cc(C(=O)N(CCCCC(=O)O)CCCc2cccc(F)c2)c1 [Example 90, 5-{(3,5-dimethoxybenzoyl)[3-(3-fluorophenyl)propyl]amino}pentanoic Acid]
IC50 [1]: 2500 nM | Emax [1]: 76% | IC50 (LPAR1 [2]): 675 nM | Emax (LPAR1 [2]): 108% | IC50 (LPAR1 [3]): 37 nM | Emax (LPAR1 [3]): 88%

COc1cc(C(=O)N(CCCCC(=O)O)CCCc2ccccc2)cc(OC)c1F [Example 99, 5-[(4-fluoro-3,5-dimethoxybenzoyl)(3-phenylpropyl)amino]pentanoic Acid]
IC50 [1]: 7850 nM | Emax [1]: 56% | IC50 (LPAR1 [2]): 3250 nM | Emax (LPAR1 [2]): 112% | IC50 (LPAR1 [3]): 67 nM | Emax (LPAR1 [3]): 82%

COc1cc(C(=O)N(CCCc2ccc(F)cc2F)CCOCC(=O)O)cc(OC)c1C [Example 130, (2-{[3-(2,4-difluorophenyl)propyl](3,5-dimethoxy-4-methylbenzoyl)amino}ethoxy)acetic Acid]
IC50 [1]: 1790 nM | Emax [1]: 83% | IC50 (LPAR1 [2]): 760 nM | Emax (LPAR1 [2]): 119% | IC50 (LPAR1 [3]): 41 nM | Emax (LPAR1 [3]): 83%
